According to PubChem BioAssay AID248 (DTP/NCI, 2004):
Where “and” joins values, the source holds several entries; their conditions need not be identical. Identical values can stand only once. Toxic doses and inconclusive results are not listed.

System: L1210 leukemia ip in BDF1 mice, survival T/C
Assay: NCI In Vivo Anticancer Drug Screen. Data for tumor model L1210 Leukemia (intraperitoneal) in B6D2F1 (BDF1) mice
Settings: endpoint: mean survival time, higher = longer survival
Summary of the method: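 In this screen, tumor-bearing mice given compound are compared to those given vehicle, and their survival values are reported as a treated-to-control quotient.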

O=NN(CCCl)C(=O)N[C@H]1CCCC[C@@H]1Cl
T/C (dose: 3.0 mg/kg/injection, schedule: Q## X024 (ip), vehicle: other): 103 % of control | T/C (dose: 3.0 mg/kg/injection, schedule: Q## X024 (oral), vehicle: other): 114 % of control | T/C (dose: 3.35 mg/kg/injection, schedule: Q01DX015 (ip), vehicle: other): 116 % of control | T/C (dose: 5.0 mg/kg/injection, schedule: Q01DX015 (ip), vehicle: other): 173 % of control | T/C (dose: 6.0 mg/kg/injection, schedule: Q01DX001 (oral), vehicle: other): 116 % of control | T/C (dose: 6.0 mg/kg/injection, schedule: Q01DX001 (sc), vehicle: other): 123 % of control | T/C (dose: 6.0 mg/kg/injection, schedule: Q## X008 (oral), vehicle: other): 122 % of control | T/C (dose: 6.7 mg/kg/injection, schedule: Q02DX008 (ip), vehicle: other): 162 % of control and 208 % of control | T/C (dose: 7.6 mg/kg/injection, schedule: Q01DX015 (ip), vehicle: other): 277 % of control | T/C (dose: 7.62 mg/kg/injection, schedule: Q01DX015 (ip), vehicle: other): 485 % of control | T/C (dose: 8.0 mg/kg/injection, schedule: Q01DX001 (ip), vehicle: carboxymethylcellulose (CMC)): 119 % of control | T/C (dose: 10.2 mg/kg/injection, schedule: Q02DX008 (ip), vehicle: other): 242 % of control and 558 % of control | T/C (dose: 11.4 mg/kg/injection, schedule: Q01DX015 (ip), vehicle: other): 348 % of control and 478 % of control | T/C (dose: 12.0 mg/kg/injection, schedule: Q01DX001 (ip), vehicle: other): 203 % of control | T/C (dose: 12.0 mg/kg/injection, schedule: Q## X008 (oral), vehicle: other): 117 % of control | T/C (dose: 13.4 mg/kg/injection, schedule: Q## X004 (ip), vehicle: other): 291 % of control and 500 % of control | T/C (dose: 13.75 mg/kg/injection, schedule: Q01DX001 (oral), vehicle: other): 150 % of control and 164 % of control | T/C (dose: 13.75 mg/kg/injection, schedule: Q## X001 (oral), vehicle: other): 200 % of control | T/C (dose: 15.0 mg/kg/injection, schedule: Q01DX001 (ip), vehicle: other): 187 % of control | T/C (dose: 15.0 mg/kg/injection, schedule: Q01DX005 (ip), vehicle: other): 476 % of control | T/C (dose: 15.0 mg/kg/injection, schedule: Q01DX009 (ip), vehicle: other): 408 % of control | T/C (dose: 15.0 mg/kg/injection, schedule: Q01DX009 (sc), vehicle: other): 365 % of control | T/C (dose: 15.0 mg/kg/injection, schedule: Q## X003 (ip), vehicle: other): 476 % of control | T/C (dose: 15.24 mg/kg/injection, schedule: Q02DX008 (ip), vehicle: other): 501 % of control | T/C (dose: 15.25 mg/kg/injection, schedule: Q01DX001 (ip), vehicle: other): 323 % of control | T/C (dose: 15.25 mg/kg/injection, schedule: Q## X001 (ip), vehicle: other): 156 % of control | T/C (dose: 16.0 mg/kg/injection, schedule: Q## X032 (ip), vehicle: other): 209 % of control | T/C (dose: 17.0 mg/kg/injection, schedule: Q01DX015 (ip), vehicle: other): 330 % of control and 527 % of control | T/C (dose: 18.0 mg/kg/injection, schedule: Q01DX001 (ip), vehicle: carboxymethylcellulose (CMC)): 183 % of control | T/C (dose: 19.0 mg/kg/injection, schedule: Q01DX001 (ip), vehicle: carboxymethylcellulose (CMC)): 160 % of control | T/C (dose: 20.4 mg/kg/injection, schedule: Q## X004 (ip), vehicle: other): 590 % of control | T/C (dose: 22.8 mg/kg/injection, schedule: Q02DX008 (ip), vehicle: other): 433 % of control and 545 % of control | T/C (dose: 24.0 mg/kg/injection, schedule: Q01DX001 (ip), vehicle: other): 476 % of control | T/C (dose: 24.0 mg/kg/injection, schedule: Q01DX001 (oral), vehicle: other): 275 % of control | T/C (dose: 24.0 mg/kg/injection, schedule: Q01DX001 (sc), vehicle: other): 267 % of control | T/C (dose: 24.0 mg/kg/injection, schedule: Q## X008 (oral), vehicle: other): 165 % of control | T/C (dose: 24.0 mg/kg/injection, schedule: Q## X024 (oral), vehicle: other): 270 % of control | T/C (dose: 24.0 mg/kg/injection, schedule: Q## X032 (ip), vehicle: other): 470 % of control | T/C (dose: 26.0 mg/kg/injection, schedule: Q01DX001 (ip), vehicle: carboxymethylcellulose (CMC)): 209 % of control and 243 % of control | T/C (dose: 27.0 mg/kg/injection, schedule: Q01DX001 (ip), vehicle: other): 409 % of control
